Results: US9018188B2, “MicroRNA inhibitors” (Ottawa Hospital Research Institute, priority 2011, dated 2015)

system: miR-133; assay: miR-133 biosensor luciferase assay in C2C12 myoblast clones; type: cell-based; conditions: C2C12 clone A10, 48 hours in growth media; TGF-β 10 ng/mL, Insulin 850 nM, IBMX 0.5 mM, AICAR 0.5 mM, Dexamethasone 1
From the text: The design of the miR-133 biosensor is based on the principle that recognition of microRNA target sites in 3′UTR by microRNA/RISC leads to the inhibition of the translation of the target mRNAs. An artificial 3′UTR containing optimized miR-133 target sites in tandem was designed and cloned downstream of the open reading frames of firefly luciferases and GFP, which in together function as miR-133 biosensor (FIG. 9A), in a lentiviral vector. C2C12 myoblast clones were infected with lentiviruses carrying the miR-133 biosensor and selected for stable expression of the reporter construct. Activity of potential modulators or miR-133 is tested and read as a reverse correlation between miR-133 functionality and luciferase/GFP intensities. The construct can be used for live-cell imaging (in vitro and in vivo) and allows real-time detection.
Two miR-133 biosensor plasmids were constructed—pCMV-FireflyLuc_miR133TS_EF1_Puro and pCMV-RenillaLuc—133TS_EF1_Puro. In the pCMV-FireflyLuc—133TS_EF1_Puro plasmid, five tandem miR-133 target sites (miR133TS; 5′-[…]-3′, SEQ ID NO:22) was cloned downstream of a firefly luciferase ORF (with a stop codon), which is driven by a CMV promoter. These miR-133 target sites in whole serve as an artificial 3′ UTR of firefly luciferase transcript. The “GGACCAAA” sequence in the miR-133 target sites is complementary to the nucleotide positions 1-8 in miR-133a and miR-133b. The “TAGCTGGTTG” sequence in the miR-133 target sites is complementary to the nucleotide positions 13-22 in miR-133a and miR-133b. The remaining sequence “CCA” sequence in the middle will not anneal to the miR-133a or miR-133b, which will form a “bulge” structure when miR-133a/b anneal to the RNA transcript of miR-133 target sites. This fireflyLuc_miR133TS cassette was further cloned into a lentivirus backbone. In the pCMV-RenillaLuc—133TS_EF1_Puro plasmid, the firefly luciferase ORF was replaced by a renilla luciferase ORF. pCMV-FireflyLuc_miR133TS_EF1_Puro and pCMV-RenillaLuc—133TS_EF1_Puro plasmids were used to generate lentivirus particles in 293T cells, which were used to infect C2C12 myoblasts. Infected C2C12 myoblasts were selected by Puromycin (2 mg/L) and clonally expanded. C2C12 clones, C11 and C3, were used in subsequent experiments.
In one experiment, a C2C12 clone C11 (25,000 cells per well on 24-well plates), was transfected with 0.5 nM and 5 nM miR-133 mimetics (Life Technologies/Ambion), which can be processed into mature miR-133 in cells. […] Both experiments were performed with 6 replicates and Z-scores above 0.5 were achieved.
In one experiment, a C2C12 clone (A10; 25,000 cells per well in 24-well plates) was treated with drugs and biologics for 48 hours in growth media. […]

Compound	effect on miR-133 by luciferase assays
NC(=O)c1ncn([C@@H]2O[C@H](CO)[C@@H](O)[C@H]2O)c1N [AICAR, 5′ amino-1-βD-ribofuranosyl-imidazole-4-carboxamide, reference compound]	enhancers of miR-133
CC(C)Cn1c(=O)n(C)c(=O)c2[nH]cnc21 [IBMX, 3-isobutyl-1-methylxanthine, reference compound]	enhancers of miR-133
Insulin	inhibitors of miR-133
TGF-β	inhibitors of miR-133
